Data reported in the supplement of paper PMC12463676, “Small-molecule dissolution of stress granules by redox modulation benefits ALS models” (Nature Chemical Biology, 2025).
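Note: each temperature applied for 3 min, abundance score taken as mean log2 fold change at the two lowest temperatures, z-score obtained by mean subtraction and division by SD.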

Sequence of UniProt Q8N511 (Q8N511 whole entry): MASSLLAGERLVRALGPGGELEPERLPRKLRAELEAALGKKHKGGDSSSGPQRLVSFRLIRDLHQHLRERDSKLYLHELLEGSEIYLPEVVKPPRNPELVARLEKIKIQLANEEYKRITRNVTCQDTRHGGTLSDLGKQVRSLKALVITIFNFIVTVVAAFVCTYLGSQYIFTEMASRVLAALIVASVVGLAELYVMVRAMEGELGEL
Sequence of UniProt P19971 (P19971 whole entry): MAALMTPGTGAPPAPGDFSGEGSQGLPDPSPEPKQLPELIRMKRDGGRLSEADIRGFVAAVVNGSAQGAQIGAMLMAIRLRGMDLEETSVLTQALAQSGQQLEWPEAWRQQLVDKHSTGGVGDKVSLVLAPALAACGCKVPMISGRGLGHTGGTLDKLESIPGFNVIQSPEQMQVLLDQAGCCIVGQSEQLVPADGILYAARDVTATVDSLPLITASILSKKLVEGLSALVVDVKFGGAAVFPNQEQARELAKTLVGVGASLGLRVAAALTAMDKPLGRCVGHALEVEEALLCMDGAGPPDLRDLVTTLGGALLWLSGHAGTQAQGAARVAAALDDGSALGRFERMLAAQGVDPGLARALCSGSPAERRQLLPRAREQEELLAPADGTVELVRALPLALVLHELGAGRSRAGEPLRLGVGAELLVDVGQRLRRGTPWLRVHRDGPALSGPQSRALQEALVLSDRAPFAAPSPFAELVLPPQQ
Sequence of UniProt Q9NVT9 (Q9NVT9 whole entry): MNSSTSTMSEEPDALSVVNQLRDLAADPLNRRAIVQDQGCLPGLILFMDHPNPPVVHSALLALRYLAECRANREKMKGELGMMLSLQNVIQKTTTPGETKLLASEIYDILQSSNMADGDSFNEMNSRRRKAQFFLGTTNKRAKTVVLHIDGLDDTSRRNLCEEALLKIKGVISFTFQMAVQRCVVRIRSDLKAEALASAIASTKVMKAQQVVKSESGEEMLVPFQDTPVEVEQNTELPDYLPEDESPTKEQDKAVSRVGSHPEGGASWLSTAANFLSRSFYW
Sequence of UniProt Q8NEL9 (Q8NEL9 whole entry): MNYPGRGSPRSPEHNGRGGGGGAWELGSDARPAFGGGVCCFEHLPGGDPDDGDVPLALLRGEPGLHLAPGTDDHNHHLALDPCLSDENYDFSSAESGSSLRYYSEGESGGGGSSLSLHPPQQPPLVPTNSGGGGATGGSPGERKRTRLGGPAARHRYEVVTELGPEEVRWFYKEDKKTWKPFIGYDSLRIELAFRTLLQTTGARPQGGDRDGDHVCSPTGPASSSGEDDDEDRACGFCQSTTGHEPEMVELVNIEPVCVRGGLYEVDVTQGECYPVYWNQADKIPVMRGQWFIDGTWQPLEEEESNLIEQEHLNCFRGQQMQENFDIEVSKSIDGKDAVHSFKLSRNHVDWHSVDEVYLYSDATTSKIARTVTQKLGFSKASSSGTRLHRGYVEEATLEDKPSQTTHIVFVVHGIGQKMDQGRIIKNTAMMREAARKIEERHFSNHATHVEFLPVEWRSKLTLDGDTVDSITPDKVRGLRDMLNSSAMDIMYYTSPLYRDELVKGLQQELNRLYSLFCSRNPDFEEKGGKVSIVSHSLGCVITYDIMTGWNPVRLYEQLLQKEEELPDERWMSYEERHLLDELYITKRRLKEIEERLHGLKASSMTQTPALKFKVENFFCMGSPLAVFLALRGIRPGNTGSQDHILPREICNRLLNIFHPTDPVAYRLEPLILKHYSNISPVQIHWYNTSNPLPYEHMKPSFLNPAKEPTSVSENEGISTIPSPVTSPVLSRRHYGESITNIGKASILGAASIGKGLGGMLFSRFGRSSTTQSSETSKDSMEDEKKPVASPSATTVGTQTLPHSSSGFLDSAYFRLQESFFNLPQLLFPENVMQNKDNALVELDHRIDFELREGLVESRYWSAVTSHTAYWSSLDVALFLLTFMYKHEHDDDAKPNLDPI
Sequence of UniProt P25815 (P25815 whole entry, looked up): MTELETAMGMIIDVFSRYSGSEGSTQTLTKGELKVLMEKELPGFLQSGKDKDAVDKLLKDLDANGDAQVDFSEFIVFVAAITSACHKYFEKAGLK
Sequence of UniProt Q96GD0 (Q96GD0 whole entry): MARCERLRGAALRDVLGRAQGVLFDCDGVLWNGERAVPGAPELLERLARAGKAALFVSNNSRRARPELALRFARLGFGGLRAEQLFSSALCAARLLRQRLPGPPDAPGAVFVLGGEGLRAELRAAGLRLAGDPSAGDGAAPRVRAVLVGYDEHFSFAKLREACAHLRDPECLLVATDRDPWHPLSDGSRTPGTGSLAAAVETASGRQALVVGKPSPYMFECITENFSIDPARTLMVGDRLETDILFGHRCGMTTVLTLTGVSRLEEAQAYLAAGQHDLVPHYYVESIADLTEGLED
Sequence of UniProt Q96GS4 (Q96GS4 whole entry): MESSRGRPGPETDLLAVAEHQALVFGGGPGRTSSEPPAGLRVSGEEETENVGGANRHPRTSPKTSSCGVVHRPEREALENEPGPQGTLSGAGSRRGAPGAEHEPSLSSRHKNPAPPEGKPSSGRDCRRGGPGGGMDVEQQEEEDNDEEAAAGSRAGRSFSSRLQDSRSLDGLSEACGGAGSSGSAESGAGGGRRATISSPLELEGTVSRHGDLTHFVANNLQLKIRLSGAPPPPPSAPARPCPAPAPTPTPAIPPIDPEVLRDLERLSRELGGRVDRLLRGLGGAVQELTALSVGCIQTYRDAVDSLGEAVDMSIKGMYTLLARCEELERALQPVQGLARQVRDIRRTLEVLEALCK
Sequence of UniProt Q7Z3B4 (Q7Z3B4 whole entry): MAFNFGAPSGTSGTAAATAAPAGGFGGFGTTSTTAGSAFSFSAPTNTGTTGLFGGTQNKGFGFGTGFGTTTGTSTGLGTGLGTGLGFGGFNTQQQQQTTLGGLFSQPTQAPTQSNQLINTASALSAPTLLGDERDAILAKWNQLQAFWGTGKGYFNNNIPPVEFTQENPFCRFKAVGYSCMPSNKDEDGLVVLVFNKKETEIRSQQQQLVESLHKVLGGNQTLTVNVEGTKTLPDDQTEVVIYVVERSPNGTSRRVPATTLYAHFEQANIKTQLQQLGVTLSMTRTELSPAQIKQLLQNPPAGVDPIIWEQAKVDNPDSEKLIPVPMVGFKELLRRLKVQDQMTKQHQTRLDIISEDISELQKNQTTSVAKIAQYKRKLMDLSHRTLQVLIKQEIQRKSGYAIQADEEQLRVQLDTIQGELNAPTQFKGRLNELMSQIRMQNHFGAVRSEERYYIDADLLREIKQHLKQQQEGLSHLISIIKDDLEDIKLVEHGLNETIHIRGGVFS
Sequence of UniProt Q96BW9 (Q96BW9 whole entry): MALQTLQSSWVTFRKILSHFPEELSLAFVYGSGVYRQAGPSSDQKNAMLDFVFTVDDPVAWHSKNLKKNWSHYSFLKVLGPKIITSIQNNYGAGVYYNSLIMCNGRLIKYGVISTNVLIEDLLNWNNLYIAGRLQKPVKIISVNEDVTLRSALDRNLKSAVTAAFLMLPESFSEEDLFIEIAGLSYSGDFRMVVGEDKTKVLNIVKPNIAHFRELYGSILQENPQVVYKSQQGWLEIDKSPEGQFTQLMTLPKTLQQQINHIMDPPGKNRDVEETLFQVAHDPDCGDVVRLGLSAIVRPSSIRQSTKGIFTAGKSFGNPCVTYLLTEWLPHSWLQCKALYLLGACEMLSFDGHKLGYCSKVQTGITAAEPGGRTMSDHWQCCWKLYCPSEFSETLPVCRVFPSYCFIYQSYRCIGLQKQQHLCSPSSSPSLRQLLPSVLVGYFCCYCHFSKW
Sequence of UniProt Q96B54 (Q96B54 whole entry): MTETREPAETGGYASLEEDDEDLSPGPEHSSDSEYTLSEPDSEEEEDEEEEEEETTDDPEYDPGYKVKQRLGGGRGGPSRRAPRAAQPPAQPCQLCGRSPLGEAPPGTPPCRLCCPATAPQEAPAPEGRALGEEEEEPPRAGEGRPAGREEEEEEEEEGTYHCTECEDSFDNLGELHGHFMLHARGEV
Sequence of UniProt P00390 (P00390 whole entry): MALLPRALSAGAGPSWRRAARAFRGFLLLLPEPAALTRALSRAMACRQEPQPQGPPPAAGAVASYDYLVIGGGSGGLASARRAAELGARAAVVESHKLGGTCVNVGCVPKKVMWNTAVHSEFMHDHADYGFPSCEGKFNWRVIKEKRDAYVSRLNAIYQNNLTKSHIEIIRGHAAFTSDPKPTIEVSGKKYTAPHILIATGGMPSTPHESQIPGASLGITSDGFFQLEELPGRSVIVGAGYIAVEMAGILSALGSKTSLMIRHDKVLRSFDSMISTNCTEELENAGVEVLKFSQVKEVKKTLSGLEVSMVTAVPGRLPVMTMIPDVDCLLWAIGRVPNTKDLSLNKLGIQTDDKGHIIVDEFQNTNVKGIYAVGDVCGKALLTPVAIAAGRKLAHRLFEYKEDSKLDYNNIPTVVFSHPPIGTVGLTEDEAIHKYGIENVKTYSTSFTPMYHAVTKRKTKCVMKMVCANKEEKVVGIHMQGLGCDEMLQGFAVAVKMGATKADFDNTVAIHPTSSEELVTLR
Sequence of UniProt Q99704 (Q99704 whole entry): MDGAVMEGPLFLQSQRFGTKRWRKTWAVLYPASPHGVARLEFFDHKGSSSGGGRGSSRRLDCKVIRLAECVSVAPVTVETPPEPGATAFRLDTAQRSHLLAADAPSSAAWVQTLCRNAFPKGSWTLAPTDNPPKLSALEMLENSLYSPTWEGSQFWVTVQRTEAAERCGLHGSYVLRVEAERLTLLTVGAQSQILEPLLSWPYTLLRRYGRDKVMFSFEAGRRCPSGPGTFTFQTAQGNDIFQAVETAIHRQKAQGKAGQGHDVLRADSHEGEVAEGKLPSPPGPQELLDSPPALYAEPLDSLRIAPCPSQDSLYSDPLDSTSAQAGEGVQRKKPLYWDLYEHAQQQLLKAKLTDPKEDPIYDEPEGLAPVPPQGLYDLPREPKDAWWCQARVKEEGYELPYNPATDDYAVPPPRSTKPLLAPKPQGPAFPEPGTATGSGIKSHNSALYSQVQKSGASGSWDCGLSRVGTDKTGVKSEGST
Sequence of UniProt P07108 (P07108 whole entry): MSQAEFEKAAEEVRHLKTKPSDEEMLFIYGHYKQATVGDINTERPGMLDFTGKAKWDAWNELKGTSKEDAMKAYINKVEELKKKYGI

Each target was assayed with NC(=O)CCCCC1CCSS1 [lipoamide] (assay: thermal stability z-score vs DMSO; higher = more thermally stabilized by treatment). Settings: HeLa; lipoamide concentration 100 µM; arsenate co-treatment: 1 mM arsenate 1 h.
Method: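 Cellular thermal proteome profiling in HeLa cells. Cells were treated with 100 µM lipoamide for 1 h, with or without 1 mM arsenate for a further 1 h, then heated to ten temperatures (37-66.3 °C), and soluble protein was quantified by TMT mass spectrometry relative to 0.1% DMSO controls. The thermal stability score (sum of log2 fold changes minus the abundance score) was transformed to a z-score; mean of n = 3 experiments.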
With PRPF18 (UniProt Q99633) the thermal stability z-score was -0.378.
For DDX18 (UniProt Q9NVP1), the thermal stability z-score was 0.301.
Target PRKACB (UniProt P22694) has a thermal stability z-score of -0.58.
C17ORF59 (UniProt Q96GS4) showed a thermal stability z-score of 0.136.
IQSEC1 (UniProt Q6DN90) was tested, and the thermal stability z-score was 0.165.
Work on MRPL32 (UniProt Q9BYC8) yielded a thermal stability z-score of -0.0526.
Target DOK1 (UniProt Q99704) has a thermal stability z-score of 0.221.
In the case of SPG20 (UniProt Q8N0X7), the thermal stability z-score is reported as 0.715.
S100P (UniProt P25815) was tested, and the thermal stability z-score was 0.367.
DDHD1 (UniProt Q8NEL9) showed a thermal stability z-score of -0.143.
With EMC4 (UniProt Q5J8M3) the thermal stability z-score was -0.342.
Target PIP4K2C (UniProt Q8TBX8) has a thermal stability z-score of 0.0507.
With TBCD (UniProt Q9BTW9) the thermal stability z-score was -0.558.
For NDUFB8 (UniProt O95169), the thermal stability z-score was 0.714.
Target RNF40 (UniProt O75150) has a thermal stability z-score of 0.453.
With ASUN (UniProt Q9NVM9) the thermal stability z-score was 0.368.
Target TYMP (UniProt P19971) has a thermal stability z-score of 0.856.
PDXP (UniProt Q96GD0) gave a thermal stability z-score of 0.0465.
POLR2G (UniProt P62487) gave a thermal stability z-score of 0.343.
ARMC1 (UniProt Q9NVT9) was tested, and the thermal stability z-score was 0.616.
TMEM199 (UniProt Q8N511) showed a thermal stability z-score of -0.91.
Target HEXIM2 (UniProt Q96MH2) has a thermal stability z-score of -0.264.
Target TUFM (UniProt P49411) has a thermal stability z-score of -2.05.
LTA4H (UniProt P09960) showed a thermal stability z-score of 0.357.
Work on MTA1 (UniProt Q13330) yielded a thermal stability z-score of 0.06.
In the case of GSR (UniProt P00390), the thermal stability z-score is reported as 0.558.
In the case of ZHX1 (UniProt Q9UKY1), the thermal stability z-score is reported as 0.0297.
ACTR3 (UniProt P61158) was tested, and the thermal stability z-score was -0.149.
In the case of TRAP1 (UniProt Q12931), the thermal stability z-score is reported as -1.2.
Work on ZNF428 (UniProt Q96B54) yielded a thermal stability z-score of 1.64.
For TAMM41 (UniProt Q96BW9), the thermal stability z-score was -0.232.
For LIMA1 (UniProt Q9UHB6), the thermal stability z-score was -0.552.
For MAP3K7 (UniProt O43318), the thermal stability z-score was 0.164.
RNF214 (UniProt Q8ND24) was tested, and the thermal stability z-score was -0.0786.
NUP54 (UniProt Q7Z3B4) was tested, and the thermal stability z-score was 0.342.
NECAP1 (UniProt Q8NC96) was tested, and the thermal stability z-score was 0.133.
With GBE1 (UniProt Q04446) the thermal stability z-score was -0.395.
For RPS5 (UniProt P46782), the thermal stability z-score was 0.607.
In the case of NIFK (UniProt Q9BYG3), the thermal stability z-score is reported as 1.5.
TRAPPC4 (UniProt Q9Y296) was tested, and the thermal stability z-score was -0.271.
DGCR14 (UniProt Q96DF8) gave a thermal stability z-score of -0.552.
TTC19 (UniProt Q6DKK2) was tested, and the thermal stability z-score was 0.927.
Work on HELLS (UniProt Q9NRZ9) yielded a thermal stability z-score of -0.0381.
In the case of GFM1 (UniProt Q96RP9), the thermal stability z-score is reported as -0.469.
With ANXA3 (UniProt P12429) the thermal stability z-score was 0.902.
RPL18A (UniProt Q02543) gave a thermal stability z-score of 0.628.
For ACTN1 (UniProt P12814), the thermal stability z-score was 0.249.
PARK7 (UniProt Q99497) was tested, and the thermal stability z-score was 4.83.
In the case of DHRS11 (UniProt Q6UWP2), the thermal stability z-score is reported as 0.484.
For TRAF6 (UniProt Q9Y4K3), the thermal stability z-score was -0.0771.
SETX (UniProt Q7Z333) gave a thermal stability z-score of -0.122.
RAB7A (UniProt P51149) showed a thermal stability z-score of 0.164.
For CCBL1|KYAT1, the thermal stability z-score was 0.0425.
Work on ERAL1 (UniProt O75616) yielded a thermal stability z-score of -0.329.
PRELID1 (UniProt Q9Y255) showed a thermal stability z-score of 0.0933.
GTF2H3 (UniProt Q13889) was tested, and the thermal stability z-score was 0.0675.
For FNBP1L (UniProt Q5T0N5), the thermal stability z-score was -0.051.
ENDOG (UniProt Q14249) was tested, and the thermal stability z-score was -1.25.
SLC30A1 (UniProt Q9Y6M5) was tested, and the thermal stability z-score was 0.17.
TBK1 (UniProt Q9UHD2) showed a thermal stability z-score of -0.607.
In the case of MADD (UniProt Q8WXG6), the thermal stability z-score is reported as 0.198.
Target BLOC1S5 (UniProt Q8TDH9) has a thermal stability z-score of 0.19.
Target DBI (UniProt P07108) has a thermal stability z-score of 1.09.
Work on PTMS (UniProt P20962) yielded a thermal stability z-score of 0.606.
With PFKM (UniProt P08237) the thermal stability z-score was 0.24.
Target CNPY4 (UniProt Q8N129) has a thermal stability z-score of -1.84.
For FPGT (UniProt O14772), the thermal stability z-score was -0.111.
Work on WDR62 (UniProt O43379) yielded a thermal stability z-score of -0.259.
CSRP1 (UniProt P21291) was tested, and the thermal stability z-score was 0.858.
Work on RPUSD4 (UniProt Q96CM3) yielded a thermal stability z-score of -0.196.
Target PSMC4 (UniProt P43686) has a thermal stability z-score of -0.725.

Same assay, conditions: HeLa; lipoamide concentration 100 µM; arsenate co-treatment: none
Target PRPF18 (UniProt Q99633) has a thermal stability z-score of 0.186.
With DDX18 (UniProt Q9NVP1) the thermal stability z-score was 0.0191.
With PRKACB (UniProt P22694) the thermal stability z-score was -0.36.
C17ORF59 (UniProt Q96GS4) gave a thermal stability z-score of -0.131.
Target IQSEC1 (UniProt Q6DN90) has a thermal stability z-score of 0.212.
MRPL32 (UniProt Q9BYC8) was tested, and the thermal stability z-score was 0.482.
With DOK1 (UniProt Q99704) the thermal stability z-score was -0.608.
Target SPG20 (UniProt Q8N0X7) has a thermal stability z-score of 0.609.
With S100P (UniProt P25815) the thermal stability z-score was -0.088.
Target DDHD1 (UniProt Q8NEL9) has a thermal stability z-score of -0.142.
Work on EMC4 (UniProt Q5J8M3) yielded a thermal stability z-score of 0.294.
For PIP4K2C (UniProt Q8TBX8), the thermal stability z-score was 0.12.
In the case of TBCD (UniProt Q9BTW9), the thermal stability z-score is reported as -0.301.
Target NDUFB8 (UniProt O95169) has a thermal stability z-score of 1.42.
In the case of RNF40 (UniProt O75150), the thermal stability z-score is reported as 0.161.
For ASUN (UniProt Q9NVM9), the thermal stability z-score was 0.404.
TYMP (UniProt P19971) showed a thermal stability z-score of 0.677.
Work on PDXP (UniProt Q96GD0) yielded a thermal stability z-score of 0.133.
POLR2G (UniProt P62487) showed a thermal stability z-score of 0.681.
ARMC1 (UniProt Q9NVT9) gave a thermal stability z-score of 0.111.
TMEM199 (UniProt Q8N511) showed a thermal stability z-score of -1.15.
Work on HEXIM2 (UniProt Q96MH2) yielded a thermal stability z-score of 0.637.
Target TUFM (UniProt P49411) has a thermal stability z-score of -1.11.
LTA4H (UniProt P09960) was tested, and the thermal stability z-score was 0.32.
With MTA1 (UniProt Q13330) the thermal stability z-score was 0.414.
In the case of GSR (UniProt P00390), the thermal stability z-score is reported as 0.347.
With ZHX1 (UniProt Q9UKY1) the thermal stability z-score was 0.122.
ACTR3 (UniProt P61158) gave a thermal stability z-score of 0.128.
For TRAP1 (UniProt Q12931), the thermal stability z-score was 0.188.
For ZNF428 (UniProt Q96B54), the thermal stability z-score was 2.65.
TAMM41 (UniProt Q96BW9) showed a thermal stability z-score of 0.102.
LIMA1 (UniProt Q9UHB6) was tested, and the thermal stability z-score was -0.44.
Work on MAP3K7 (UniProt O43318) yielded a thermal stability z-score of 0.123.
RNF214 (UniProt Q8ND24) gave a thermal stability z-score of -0.0159.
For NUP54 (UniProt Q7Z3B4), the thermal stability z-score was 0.00636.
